Test: In vivo corticosterone induced depression model: effect on body weight
Parameters: species or system mouse (male C57)
Settings: 21 days; for Weight (g) ± SD: A1 20 mg/kg oral, fluoxetine 18 mg/kg
Protocol: In vivo efficacy (ameliorates behavioral despair) of A1 in corticosterone induced model of stress (J. Neurochem., 2018 146, 722 734). […] A1 (20 mg/kg, oral) dissolved in normal saline was given for 3 consecutive weeks following corticosteroid stress. The sucrose preference test was employed, tail suspension test, and forced swim test to evaluate behavioral distress. We noticed that A1 can resurrect mice in stressful situations. […]

C=C(C)[C@@H]1CCC(C)=C[C@H]1c1c(O)cc(CCCCC)c(CN2CCOCC2)c1O [A1, 2′-(morpholin-1-ylmethyl)-cannabidiol]
toxicity / weight fluctuations (in words) (20 mg/kg oral): no discernible toxicity
Weight (g) ± SD (with Cort. 35 μg/ml): 36.75 ± 3.88 g
Weight (g) ± SD (without Cort.): 42.88 ± 2.69 g
